Assay results reported in the supplement of paper PMC13207355.
Where “and” joins values, the source holds several entries; their conditions need not be identical. Equal values may be shown once.

How the values were obtained:
Settings in all cases: exposure time: 72 h
E13 [1] = patient-derived glioblastoma stem cells of classical subtype; assay: surviving fraction (nuclei count normalised to DMSO); higher = more cells surviving (less toxic)
E21 [2] = patient-derived glioblastoma stem cells of mesenchymal subtype; assay: as above
E28 [3] = patient-derived glioblastoma stem cells of classical subtype; assay: as above
E31 [4] = patient-derived glioblastoma stem cells of proneural subtype; assay: as above
E34 [5] = patient-derived glioblastoma stem cells of proneural subtype; assay: as above
E57 [6] = patient-derived glioblastoma stem cells of mesenchymal subtype; assay: as above
FT3469 [7] = normal neural stem cell line; assay: as above
E13 [8] = assay: phenotypic distance (Euclidean, principal components) from DMSO controls (arbitrary units); higher = stronger morphological change
E21 [9] = assay: as above
E28 [10] = assay: as above
E31 [11] = assay: as above
E34 [12] = assay: as above
E57 [13] = assay: as above
FT3469 [14] = assay: as above
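For phenotypic distance (Euclidean, principal components) from DMSO controls in this document: cell Painting imaging in 384-well plates, CellProfiler features reduced to at least 20 principal components, Euclidean distance versus same-plate DMSO vehicle wells (0.1% v/v), median over six images per well.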
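For surviving fraction (nuclei count normalised to DMSO) in this document: nuclei counted by high-content imaging of Hoechst-stained cells in laminin-coated 384-well plates, relative to 0.1% DMSO vehicle wells, with staurosporine as cell-death control.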

Cc1ccc(C(=O)N(CCCN)[C@@H](c2oc3cc(Cl)ccc3c(=O)c2Cc2ccccc2)C(C)C)cc1
Settings | phenotypic distance | surviving fraction
E13 [1], 4.1 nM | – | 0.451 and 0.49
E13 [1], 12.3 nM | – | 0.443 and 0.489
E13 [1], 37 nM | – | 0.461 and 0.468
E13 [1], 111.1 nM | – | 0.399 and 0.43
E13 [1], 333.3 nM | – | 0.428 and 0.492
E13 [1], 1000 nM | – | 0.445 and 0.399
E13 [8], 4.1 nM | 3.01 and 2.45 | –
E13 [8], 12.3 nM | 3.35 and 2.7 | –
E13 [8], 37 nM | 2.78 | –
E13 [8], 111.1 nM | 3.42 and 3.07 | –
E13 [8], 333.3 nM | 2.78 and 2.91 | –
E13 [8], 1000 nM | 2.81 and 3.02 | –
E13 [8], 3000 nM | 2.53 and 5.91 | –
E21 [2], 4.1 nM | – | 0.198 and 0.164
E21 [2], 12.3 nM | – | 0.186 and 0.161
E21 [2], 37 nM | – | 0.159 and 0.158
E21 [2], 111.1 nM | – | 0.192 and 0.177
E21 [2], 333.3 nM | – | 0.178 and 0.162
E21 [2], 1000 nM | – | 0.21 and 0.182
E21 [9], 4.1 nM | 6.85 and 5.14 | –
E21 [9], 12.3 nM | 6.99 and 5.4 | –
E21 [9], 37 nM | 7.53 and 5.43 | –
E21 [9], 111.1 nM | 5.98 and 4.77 | –
E21 [9], 333.3 nM | 7.67 and 4.85 | –
E21 [9], 1000 nM | 6.93 and 5.54 | –
E21 [9], 3000 nM | 10.1 and 4.79 | –
E28 [3], 4.1 nM | – | 0.424 and 0.34
E28 [3], 12.3 nM | – | 0.335 and 0.367
E28 [3], 37 nM | – | 0.415 and 0.342
E28 [3], 111.1 nM | – | 0.346 and 0.352
E28 [3], 333.3 nM | – | 0.428 and 0.43
E28 [3], 1000 nM | – | 0.328 and 0.336
E28 [10], 4.1 nM | 3.6 and 2.9 | –
E28 [10], 12.3 nM | 3.5 and 3.14 | –
E28 [10], 37 nM | 3.73 and 3.19 | –
E28 [10], 111.1 nM | 3.42 and 3.15 | –
E28 [10], 333.3 nM | 3.17 and 2.59 | –
E28 [10], 1000 nM | 3.49 and 3.39 | –
E31 [4], 4.1 nM | – | 0.165
E31 [4], 12.3 nM | – | 0.184
E31 [4], 37 nM | – | 0.189
E31 [4], 111.1 nM | – | 0.126
E31 [4], 333.3 nM | – | 0.171
E31 [4], 1000 nM | – | 0.174
E31 [4], 3000 nM | – | 0.00446
E31 [11], 4.1 nM | 4.81 | –
E31 [11], 12.3 nM | 3.13 | –
E31 [11], 37 nM | 3.36 | –
E31 [11], 111.1 nM | 3.73 | –
E31 [11], 333.3 nM | 4.39 | –
E31 [11], 1000 nM | 3.79 | –
E31 [11], 3000 nM | 11.9 | –
E34 [5], 4.1 nM | – | 0.598 and 0.534
E34 [5], 12.3 nM | – | 0.575 and 0.607
E34 [5], 37 nM | – | 0.606 and 0.576
E34 [5], 111.1 nM | – | 0.429 and 0.564
E34 [5], 333.3 nM | – | 0.575 and 0.595
E34 [5], 1000 nM | – | 0.549 and 0.594
E34 [12], 4.1 nM | 2.72 and 1.93 | –
E34 [12], 12.3 nM | 2.65 and 1.73 | –
E34 [12], 37 nM | 2.52 and 2.06 | –
E34 [12], 111.1 nM | 2.4 and 1.93 | –
E34 [12], 333.3 nM | 2.3 and 2.24 | –
E34 [12], 1000 nM | 2.35 and 1.99 | –
E57 [6], 4.1 nM | – | 0.0969 and 0.0961
E57 [6], 12.3 nM | – | 0.0867 and 0.0693
E57 [6], 37 nM | – | 0.0872 and 0.0935
E57 [6], 111.1 nM | – | 0.101 and 0.085
E57 [6], 333.3 nM | – | 0.0996 and 0.117
E57 [6], 1000 nM | – | 0.119 and 0.0974
E57 [13], 4.1 nM | 8.08 and 4.22 | –
E57 [13], 12.3 nM | 4.11 and 7.9 | –
E57 [13], 37 nM | 4.48 and 8.38 | –
E57 [13], 111.1 nM | 4.53 and 7.47 | –
E57 [13], 333.3 nM | 4.17 and 7.46 | –
E57 [13], 1000 nM | 4.05 and 7.38 | –
E57 [13], 3000 nM | 3.9 and 9.85 | –
FT3469 [7], 4.1 nM | – | 0.493 and 0.523
FT3469 [7], 12.3 nM | – | 0.562 and 0.558
FT3469 [7], 37 nM | – | 0.606 and 0.566
FT3469 [7], 111.1 nM | – | 0.534 and 0.565
FT3469 [7], 333.3 nM | – | 0.489 and 0.597
FT3469 [7], 1000 nM | – | 0.556 and 0.549
FT3469 [14], 4.1 nM | 2.95 and 2.85 | –
FT3469 [14], 12.3 nM | 2.63 and 2.23 | –
FT3469 [14], 37 nM | 2.78 and 2.25 | –
FT3469 [14], 111.1 nM | 3.02 and 2.28 | –
FT3469 [14], 333.3 nM | 3.08 and 2.17 | –
FT3469 [14], 1000 nM | 2.54 and 2.94 | –
